Test results reported in PubChem BioAssay (NCI).
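Compound exposure: 48 hours, 5 concentrations, 96-well plates. At the GI50, growth is halved. At the TGI there is no net growth.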

What was measured:
Test in all cases: growth of human tumour cells (NCI), 48 h
[1] = test system: U251 CNS
[2] = test system: EKVX NSCLC
[3] = test system: HS 578T breast
[4] = test system: SF-268 CNS
[5] = test system: OVCAR-3 ovarian
[6] = test system: HOP-92 NSCLC
[7] = test system: COLO 205 colon
[8] = test system: CCRF-CEM leukemia
[9] = test system: SR leukemia
[10] = test system: SK-OV-3 ovarian

SMILES | TGI [1] [µM] | TGI [2] [µM] | TGI [3] [µM] | TGI [4] [µM] | TGI [5] [µM] | TGI [6] [µM] | TGI [7] [µM] | TGI [8] [µM] | TGI [9] [µM] | TGI [10] [µM] | GI50 [1] [µM] | GI50 [2] [µM] | GI50 [3] [µM] | GI50 [4] [µM] | GI50 [5] [µM] | GI50 [6] [µM] | GI50 [7] [µM] | GI50 [8] [µM] | GI50 [9] [µM] | GI50 [10] [µM]
O=P(O)(O)CN1CCNCCN(CP(=O)(O)O)CCNCC1 | > 100 | > 100 | > 100 | > 100 | > 100 | 9.76 | > 100 | > 100 | 4.16 | > 100 |  |  |  |  |  |  |  |  |  | 
COc1cc(-n2cc(-c3cc(O)c(C/C=C(\C)CCC=C(C)C)c(O)c3)nn2)cc2c1O[C@]1(C)CC[C@@H](O)C(C)(C)[C@H]1C2 | 10.9 | 44.1 | 3.41 | 30.4 | 14.3 | 17.3 | 22.2 | > 43.3 | > 100 | 33.3 | 0.0959 | 2.28 | 0.0452 | 2.03 | 2.58 | 1.03 | 3.76 | 0.194 | 0.0317 | 2.3
O=c1oc2ccc(Cl)cc2cc1-c1cn2ccsc2n1 | > 100 | > 100 | > 100 | > 100 | > 100 | 64.3 | 93.6 | 78.3 | > 100 | > 100 |  |  |  |  |  |  |  |  |  | 
Nc1ncc(/C=N/O)c(NCC2(CO)CC(CCc3ccccc3)C2)n1 (stereo not drawn) | 26.4 |  | > 100 | > 100 | 30.7 | 30.2 | 27.2 | 50.2 | > 100 |  |  |  |  |  |  |  |  |  |  | 
O=CNNC(=O)Nc1ccc(Cl)cc1 | > 100 | > 100 | > 100 | > 100 |  | 76.8 | > 100 | > 100 | > 100 | > 100 |  |  |  |  |  |  |  |  |  | 
COC(=O)/C=C/c1ccc2c(c1)CC1(Cc3ccccc3C1)C2 | > 100 | > 100 | 80.4 |  | > 100 | > 100 | > 100 | 57.3 | 58.1 | > 100 |  |  |  |  |  |  |  |  |  | 
Cc1cn([C@H]2[C@@H](CO)C[C@H]2O)c(=O)[nH]c1=O | > 100 | > 100 | > 100 | > 100 | > 100 | > 100 | > 100 | > 100 | > 100 |  |  |  |  |  |  |  |  |  |  | 
O=C1CSC2(CC(/C=C/c3ccccc3Br)=NN2c2cccc(S(=O)(=O)O)c2)N1c1nc2ccccc2s1 (stereo not drawn) | > 100 | > 100 | > 100 | > 100 |  | > 100 | > 100 | > 100 | > 100 |  |  |  |  |  |  |  |  |  |  | 
O=C(c1ccco1)C1CC(c2ccc3ccccc3c2O)=NN1c1ccc([N+](=O)[O-])cc1[N+](=O)[O-] (stereo not drawn) | > 100 |  | 66.6 | > 100 | > 100 | 76.1 | 32 | 10.6 | 23.1 | 96.9 |  |  |  |  |  |  |  |  |  | 
COc1ccc(C=Nc2ccc(-c3nc4ccccc4[nH]3)cc2)cc1OC | > 100 | > 100 | > 100 | > 100 | > 100 | > 100 | > 100 | > 100 | > 100 | > 100 |  |  |  |  |  |  |  |  |  | 
COc1ccc(C(=O)c2ccc(-n3cc(/C=C/[N+](=O)[O-])c4ccccc43)cc2)cc1 | 24.9 | 55 | 19.9 | > 54.1 | 27.1 | 34.9 | > 63.5 | > 20.2 | > 100 | > 71.3 |  |  |  |  |  |  |  |  |  | 
CCOC(=O)c1nc2ccccc2nc1NCc1ccc(Cl)cc1Cl | > 100 | > 100 | > 100 | > 100 | > 100 | > 100 | > 100 | > 100 | > 100 | > 100 |  |  |  |  |  |  |  |  |  | 
O=C1OI(C#Cc2ccccc2)c2ccccc21 | 6.13 | 9.67 | 26.6 | 9.96 | 10.6 | 5.66 | 9.11 | 4.01 | 5.53 | 26.1 |  |  |  |  |  |  |  |  |  | 
CC(=O)c1ccc(NC(=O)CSc2nc(C)nc3c2sc(=S)n3-c2ccccc2)cc1 | > 3.16 | > 3.16 | > 3.16 | > 3.16 | > 3.16 | > 3.16 | > 3.16 | > 3.16 | > 3.16 | > 3.16 |  |  |  |  |  |  |  |  |  | 
C=C[C@@](C)(/C=C/c1ccc(O)cc1)CCC=C(C)C | 30.6 |  | 46.9 |  | 32.2 | 32 | 33.1 | 31 | 32.1 | 30 |  |  |  |  |  |  |  |  |  | 
COC(=O)c1c(OC)cc2cc3c(c(O)c2c1C)C(=O)C1(O)C(=O)C=C(OC)C(OC(=O)CC(C)N)=C1C3=O (stereo not drawn) | > 100 | 72.4 | 96.6 | > 100 | > 100 | > 100 | > 100 | 49.5 | 47.6 |  |  |  |  |  |  |  |  |  |  | 
CNc1ccc(Cl)cc1S(=O)(=O)c1ccccc1[N+](=O)[O-] | > 100 | > 100 | > 100 | > 100 | > 100 |  | > 100 | > 100 | > 100 | > 100 |  |  |  |  |  |  |  |  |  | 
